The record followed here is US9409952B2, “Peptide-compound cyclization method” (Chugai Seiyaku Kabushiki Kaisha, priority 2011, dated 2016).

Starred links: 1 amine or outer side, 2 acyl side, 3 side chain; linkers in the order of their positions; H or OH if unused. Positions of bridges follow the written chain, without caps; N, C: chain ends. Non-standard residues stand in square brackets, D forms with d. Residues, ends and D or L forms follow the SMILES beside them. *: point of attachment. Phe(3-(CH2)4CO) = O=C([C@H](Cc1cccc(CCCCC(=O)[*:3])c1)N[*:1])[*:2]; Ala(1H-tetrazol-5-yl) = N[C@@H](Cc1nnn[nH]1)C(=O)O; NMePhe(3-Cl) = CN[C@@H](Cc1cccc(Cl)c1)C(=O)O; NMeF = CN[C@@H](Cc1ccccc1)C(=O)O; NMeI = CC[C@H](C)[C@H](NC)C(=O)O; NMeL = CN[C@@H](CC(C)C)C(=O)O; NMeA = CN[C@@H](C)C(=O)O; Piperidide = C1CCN(*)CC1; Sar = CNCC(=O)O

Data set [1] can be described thus: PAMPA (parallel artificial membrane permeability assay). Particulars: membrane permeation rate (Pe), 50 mM MOPSO buffer pH 6.5 with 5.0% glycocholic acid, 37° C., 18 hours; for Papp at 18 hours, 50 µM: PAMPA, read-out: iPAMPA Pe. In kind it is in vitro ADME. In outline:
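Artificial membrane was 10% (w/v) egg lecithin plus 0.5% (w/v) cholesterol in dodecane on a PVDF filter. A 10 mM DMSO stock was added at 0.5% (v/v) to donor buffer (50 mM MOPSO, pH 6.5, 5.0% glycocholic acid). After 18 h at 37 °C, LC/MS or LC/UV gave donor and acceptor levels for Pe.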
(In general: PAMPA measures passive passage across an artificial lipid membrane.)

Data set [2] in a line: Metabolic stability in human hepatic microsome. As to conditions: microsomes, pH 7.4; human hepatic microsome, NADPH(+); read-out: CL NADPH(+). In kind it is in vitro ADME.

As to `C=C1CCC(=O)N[C@@H](CC(C)C)C(=O)N[C@@H](C(C)C)C(=O)N(C)[C@@H](CC(C)C)C(=O)N[C@@H](Cc2ccccc2)C(=O)N(C)[C@@H](Cc2ccccc2)C(=O)N[C@@H]([C@@H](C)CC)C(=O)N(C)[C@@H](C)C(=O)N[C@@H](CC(C)C)C(=O)N[C@@H]([C@@H](C)O)C(=O)N[C@H](C(=O)N2CCCCC2)Cc2ccc1cc2` [DP-888], the Papp at 18 hours, 50 µM in data set [1] is 0.81 ×10⁻⁶ cm/s. For the same compound, the microsomal CLint at 1 uM in data set [2] worked out at 69 µL/min/mg.
In the case of `C=C1CCC(=O)NCC(=O)N(C)[C@@H](C)C(=O)N[C@@H](CC(C)C)C(=O)N[C@@H](C(C)C)C(=O)N(C)[C@@H](CC(C)C)C(=O)N[C@@H](Cc2ccccc2)C(=O)N(C)[C@@H](Cc2ccccc2)C(=O)N[C@@H]([C@@H](C)CC)C(=O)N(C)[C@@H](C)C(=O)N[C@@H](CC(C)C)C(=O)N[C@@H]([C@@H](C)O)C(=O)N[C@H](C(=O)N2CCCCC2)Cc2cccc1c2` [DP-889], the Papp at 18 hours, 50 µM in data set [1] amounted to 3.6 ×10⁻⁶ cm/s. The microsomal CLint at 1 uM in data set [2] is 89 µL/min/mg.
In the case of `CC[C@H](C)[C@@H]1NC(=O)[C@H](Cc2ccccc2)N(C)C(=O)[C@H](Cc2ccccc2)NC(=O)[C@H](CC(C)C)N(C)C(=O)[C@H](C(C)C)NC(=O)[C@H](CC(C)C)NC(=O)[C@H](C)N(C)C(=O)CNC(=O)CCCCc2cccc(c2)C[C@@H](C(=O)N2CCCCC2)NC(=O)[C@H]([C@@H](C)O)NC(=O)[C@H](CC(C)C)NC(=O)[C@H](C)N(C)C1=O` [DP-893] (G[NMeA]LV[NMeL]F[NMeF]I[NMeA]LT[Phe(3-(CH2)4CO)]-Piperidide; lactam N-12), the Papp at 18 hours, 50 µM in data set [1] turned out to be 5.3 ×10⁻⁶ cm/s. Besides, in data set [2], the microsomal CLint at 1 uM is 86 µL/min/mg.
In the same order, the values of `CC[C@H](C)[C@@H]1NC(=O)[C@H](Cc2ccccc2)N(C)C(=O)[C@H](Cc2ccccc2)NC(=O)[C@H](CC(C)C)N(C)C(=O)[C@H](C(C)C)NC(=O)[C@H](CC(C)C)NC(=O)CCCCc2cccc(c2)C[C@@H](C(=O)N2CCCCC2)NC(=O)[C@H]([C@@H](C)O)NC(=O)[C@H](CC(C)C)NC(=O)[C@H](C)N(C)C1=O` [DP-894] (LV[NMeL]F[NMeF]I[NMeA]LT[Phe(3-(CH2)4CO)]-Piperidide; lactam N-10) are 0.46 ×10⁻⁶ cm/s and 71 µL/min/mg.
In the same order, the values of `CC[C@H](C)[C@H]1C(=O)N[C@@H](Cc2ccccc2)C(=O)N(C)[C@@H](Cc2ccccc2)C(=O)N[C@@H]([C@@H](C)O)C(=O)N2CCC[C@H]2C(=O)N[C@@H](CC(C)C)C(=O)N[C@H](C(=O)N2CCCCC2)Cc2cccc(c2)CCCCC(=O)N[C@@H](C(C)C)C(=O)N(C)CC(=O)N[C@@H](CC(C)C)C(=O)N(C)[C@@H](CC(C)C)C(=O)N[C@@H](C)C(=O)N1C` [DP-896] (V[Sar]L[NMeL]A[NMeI]F[NMeF]TPL[Phe(3-(CH2)4CO)]-Piperidide; lactam N-12) are 13 ×10⁻⁶ cm/s and 57 µL/min/mg.
In the same order, the values of `CC[C@H](C)[C@H]1C(=O)N[C@@H](Cc2ccccc2)C(=O)N(C)[C@@H](Cc2ccccc2)C(=O)N[C@@H]([C@@H](C)O)C(=O)N2CCC[C@H]2C(=O)N[C@@H](CC(C)C)C(=O)N[C@H](C(=O)N2CCCCC2)Cc2cccc(c2)CCCCC(=O)N[C@@H](CC(C)C)C(=O)N(C)[C@@H](CC(C)C)C(=O)N[C@@H](C)C(=O)N1C` [DP-897] (L[NMeL]A[NMeI]F[NMeF]TPL[Phe(3-(CH2)4CO)]-Piperidide; lactam N-10) are 2.4 ×10⁻⁶ cm/s and 56 µL/min/mg.
In the case of `CC[C@H](C)[C@@H]1NC(=O)[C@H](Cc2ccccc2)NC(=O)[C@@H]2CCCN2C(=O)[C@H](CC(C)C)N(C)C(=O)[C@H](Cc2ccccc2)NC(=O)[C@H](CC(C)C)NC(=O)[C@H]([C@@H](C)O)NC(=O)[C@H](C)N(C)C(=O)[C@H](C(C)C)NC(=O)CCCCc2cccc(c2)C[C@@H](C(=O)N2CCCCC2)NC(=O)[C@H](CC(C)C)NC(=O)CN(C)C1=O` [DP-900] (V[NMeA]TLF[NMeL]PFI[Sar]L[Phe(3-(CH2)4CO)]-Piperidide; lactam N-12), the Papp at 18 hours, 50 µM in data set [1] is 1.3 ×10⁻⁶ cm/s. Moreover, the microsomal CLint at 1 uM in data set [2] worked out at 244 µL/min/mg.
In the same order, the values of `CC[C@H](C)[C@@H]1NC(=O)[C@H](Cc2ccccc2)NC(=O)[C@@H]2CCCN2C(=O)[C@H](CC(C)C)N(C)C(=O)[C@H](Cc2ccccc2)NC(=O)[C@H](CC(C)C)NC(=O)[C@H]([C@@H](C)O)NC(=O)CCCCc2cccc(c2)C[C@@H](C(=O)N2CCCCC2)NC(=O)[C@H](CC(C)C)NC(=O)CN(C)C1=O` [DP-901] (TLF[NMeL]PFI[Sar]L[Phe(3-(CH2)4CO)]-Piperidide; lactam N-10) are 23 ×10⁻⁶ cm/s and 131 µL/min/mg.
In the same order, the values of `CC[C@H](C)[C@@H]1NC(=O)[C@H](Cc2ccccc2)NC(=O)CCCCc2cccc(c2)C[C@@H](C(=O)N2CCCCC2)NC(=O)[C@H](CC(C)C)NC(=O)[C@H](CC(C)C)NC(=O)[C@H](C(C)C)NC(=O)[C@H](C)N(C)C(=O)[C@H](Cc2ccccc2)NC(=O)CNC(=O)[C@H]([C@@H](C)O)NC(=O)[C@H](CC(C)C)NC(=O)[C@@H]2CCCN2C1=O` [DP-903] (FIPLTGF[NMeA]VLL[Phe(3-(CH2)4CO)]-Piperidide; lactam N-12) are 0.34 ×10⁻⁶ cm/s and 26 µL/min/mg.
Take `CC(C)C[C@H]1NC(=O)C[C@@H](C(=O)N2CCCCC2)NC(=O)[C@H](CC(C)C)N(C)C(=O)[C@H](Cc2ccccc2)NC(=O)[C@H](CC(C)C)N(C)C(=O)[C@H](C)N(C)C(=O)[C@H](Cc2c[nH]cn2)NC(=O)[C@H](CC(C)C)N(C)C(=O)[C@H](Cc2ccccc2)N(C)C1=O` [DP-904] ([dL][NMeF][NMeL]H[NMeA][NMeL]F[NMeL]D-Piperidide; lactam N-9): the Papp at 18 hours, 50 µM in data set [1] is 7.8 ×10⁻⁶ cm/s. The microsomal CLint at 1 uM in data set [2] amounted to 89 µL/min/mg.
In the same order, the values of `CC(C)C[C@@H]1NC(=O)[C@H](CC(C)C)N(C)C(=O)[C@H]([C@@H](C)O)NC(=O)[C@H](Cc2ccccc2)N(C)C(=O)C[C@@H](C(=O)N2CCCCC2)NC(=O)[C@H](CC(C)C)N(C)C(=O)[C@H](Cc2c[nH]cn2)NC(=O)[C@H](Cc2ccccc2)N(C)C(=O)[C@H](Cc2ccccc2)N(C)C1=O` [DP-905] ([NMeF]T[NMeL]L[NMeF][NMeF]H[NMeL]D-Piperidide; lactam N-9) are 0.6 ×10⁻⁶ cm/s and 73 µL/min/mg.
In the same order, the values of `CC(C)C[C@@H]1NC(=O)[C@H](CC(C)C)N(C)C(=O)C[C@@H](C(=O)N2CCCCC2)NC(=O)[C@H](CC(C)C)N(C)C(=O)[C@H](C)N(C)C(=O)[C@H]([C@@H](C)O)NC(=O)[C@H](CC(C)C)N(C)C(=O)[C@H](Cc2ccccc2)N(C)C(=O)[C@H](Cc2c[nH]cn2)NC(=O)[C@H](Cc2ccccc2)N(C)C(=O)[C@H](CC(C)C)N(C)C1=O` [DP-906] ([NMeL]L[NMeL][NMeF]H[NMeF][NMeL]T[NMeA][NMeL]D-Piperidide; lactam N-11) are 0.65 ×10⁻⁶ cm/s and 49 µL/min/mg.
On to `CC(C)C[C@@H]1NC(=O)[C@H](CC(C)C)N(C)C(=O)C[C@@H](C(=O)N2CCCCC2)NC(=O)[C@H](CC(C)C)N(C)C(=O)[C@H](CC(C)C)N(C)C(=O)[C@H](Cc2nn[nH]n2)NC(=O)[C@H](CC(C)C)N(C)C(=O)[C@H](Cc2ccccc2)N(C)C(=O)[C@H](CC(C)C)NC(=O)[C@H](Cc2ccccc2)N(C)C(=O)[C@H](CC(C)C)N(C)C1=O` [DP-908] ([NMeL]L[NMeL][NMeF]L[NMeF][NMeL][Ala(1H-tetrazol-5-yl)][NMeL][NMeL]D-Piperidide; lactam N-11), for which the Papp at 18 hours, 50 µM in data set [1] worked out at 1.6 ×10⁻⁶ cm/s. In addition, in data set [2], the microsomal CLint at 1 uM came to 3 µL/min/mg.
In the same order, the values of `CC(C)C[C@H]1NC(=O)[C@H](Cc2ccccc2)N(C)C(=O)[C@H](CC(C)C)N(C)C(=O)[C@H](C)NC(=O)[C@H](CC(C)C)N(C)C(=O)[C@H](Cc2ccccc2)N(C)C(=O)[C@H](Cc2nn[nH]n2)NC(=O)C[C@@H](C(=O)N2CCCCC2)NC(=O)[C@H](CC(C)C)N(C)C(=O)[C@H](CC(C)C)N(C)C1=O` [DP-909] ([Ala(1H-tetrazol-5-yl)][NMeF][NMeL]A[NMeL][NMeF][dL][NMeL][NMeL]D-Piperidide; lactam N-10) are 12 ×10⁻⁶ cm/s and 15 µL/min/mg.
Consider `CC[C@H](C)[C@H](NC(=O)[C@H](CC(C)C)N(C)C(=O)[C@H](C)N(C)C(=O)[C@@H](NC(=O)[C@H](CC(C)C)N(C)C(=O)[C@@H]1CC(=O)N[C@H](C(C)C)C(=O)N(C)[C@@H](C)C(=O)N(C)[C@@H](Cc2cccc(Cl)c2)C(=O)N(C)[C@@H](CC(C)C)C(=O)N[C@@H]([C@@H](C)O)C(=O)N(C)[C@@H](CC(C)C)C(=O)N1)[C@@H](C)CC)C(=O)N1CCCCC1` [DP-911] ([dV][NMeA][NMePhe(3-Cl)][NMeL]T[NMeL]D[NMeL]I[NMeA][NMeL]I-Piperidide; lactam N-7), for which, in data set [1], the “iPAMPA Pe” value stood at 1.0E−07. The microsomal CLint at 1 uM in data set [2] is 152 µL/min/mg.
With `CC[C@H](C)[C@H](NC(=O)CN(C)C(=O)[C@H](Cc1ccccc1)N(C)C(=O)[C@H](CC(C)C)N(C)C(=O)[C@@H](NC(=O)[C@@H]1CC(=O)N(C)[C@@H](C)C(=O)N[C@@H](CC(C)C)C(=O)N(C)[C@@H](CC(C)C)C(=O)N(C)[C@@H](C)C(=O)N(C)[C@@H](Cc2cccc(Cl)c2)C(=O)N[C@@H]([C@@H](C)O)C(=O)N1)C(C)C)C(=O)N1CCCCC1` [DP-912] ([NMeA]L[NMeL][NMeA][NMePhe(3-Cl)]TDV[NMeL][NMeF][Sar]I-Piperidide; lactam N-7), the Papp at 18 hours, 50 µM in data set [1] was determined as 1.3 ×10⁻⁶ cm/s. Further, the microsomal CLint at 1 uM in data set [2] is 8 µL/min/mg.
As to `CC[C@H](C)[C@@H]1NC(=O)[C@H](C(C)C)NC(=O)[C@H](Cc2ccccc2)N(C)C(=O)[C@H](C(C)C)NC(=O)[C@H](CC(C)C)N(C)C(=O)[C@H](C)NC(=O)C[C@@H](C(=O)N(C)[C@@H](Cc2ccccc2)C(=O)N(C)[C@@H](CC(C)C)C(=O)N[C@H](C(=O)N(C)[C@@H](CC(C)C)C(=O)N[C@H](C(=O)N2CCCCC2)[C@@H](C)CC)[C@@H](C)O)NC1=O` [DP-913] (A[NMeL]V[NMeF]VID[NMeF][NMeL]T[NMeL]I-Piperidide; lactam N-7), in data set [1], the “iPAMPA Pe” value stood at 1.0E−07. Also, the microsomal CLint at 1 uM in data set [2] was determined as 30 µL/min/mg.
